Experimental data: ChEMBL document CHEMBL4477255, “Charting the chemical space around the (iso)indoline scaffold, a comprehensive approach towards multitarget directed ligands” (Bioorg Med Chem Lett, 2016)

Legend:
Type in all cases: cell-based
[1] = target: T1, D(3) dopamine receptor (Homo sapiens, UniProt P35462); assay: Displacement of [3H]raclopride from human recombinant dopamine D3 receptor expressed in CHO-K1 cells incubated for 120 mins by liquid scintillation counting analysis
[2] = target: T1, D(3) dopamine receptor; assay: Displacement of [3H]raclopride from human recombinant dopamine D3 receptor expressed in CHO-K1 cells at 1 uM incubated for 120 mins by liquid scintillation counting analysis
[3] = target: T2, 5-hydroxytryptamine receptor 6 (Homo sapiens, UniProt P50406); assay: Displacement of [3H]LSD from human recombinant 5-HT6 receptor expressed in CHO-K1 cells at 1 uM incubated for 3 hrs by scintillation counting analysis
T2 sequence (P50406 whole entry): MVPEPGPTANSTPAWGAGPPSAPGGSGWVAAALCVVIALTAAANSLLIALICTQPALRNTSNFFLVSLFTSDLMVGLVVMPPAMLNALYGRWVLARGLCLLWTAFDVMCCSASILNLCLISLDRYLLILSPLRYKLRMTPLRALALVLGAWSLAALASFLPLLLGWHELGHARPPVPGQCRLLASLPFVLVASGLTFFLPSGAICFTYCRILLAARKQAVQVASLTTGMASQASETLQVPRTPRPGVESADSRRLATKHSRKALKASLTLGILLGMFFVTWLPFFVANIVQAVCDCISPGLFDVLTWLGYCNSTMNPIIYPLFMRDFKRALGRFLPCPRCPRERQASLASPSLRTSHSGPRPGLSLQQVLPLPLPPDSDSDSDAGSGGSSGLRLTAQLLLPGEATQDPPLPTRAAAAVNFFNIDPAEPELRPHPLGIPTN

[4] = species: Homo sapiens; assay: Selectivity index, ratio of Ki for human recombinant dopamine D3 receptor expressed in CHO-K1 cells to Ki for dopamine D2 long receptor expressed in CHO-K1 cells
[5] = target: T3, D(2) dopamine receptor (Homo sapiens, UniProt P14416); assay: Displacement of [3H]raclopride from human recombinant dopamine D2 long receptor expressed in CHO-K1 cells incubated for 120 mins by scintillation counting analysis
T3 sequence (P14416 whole entry): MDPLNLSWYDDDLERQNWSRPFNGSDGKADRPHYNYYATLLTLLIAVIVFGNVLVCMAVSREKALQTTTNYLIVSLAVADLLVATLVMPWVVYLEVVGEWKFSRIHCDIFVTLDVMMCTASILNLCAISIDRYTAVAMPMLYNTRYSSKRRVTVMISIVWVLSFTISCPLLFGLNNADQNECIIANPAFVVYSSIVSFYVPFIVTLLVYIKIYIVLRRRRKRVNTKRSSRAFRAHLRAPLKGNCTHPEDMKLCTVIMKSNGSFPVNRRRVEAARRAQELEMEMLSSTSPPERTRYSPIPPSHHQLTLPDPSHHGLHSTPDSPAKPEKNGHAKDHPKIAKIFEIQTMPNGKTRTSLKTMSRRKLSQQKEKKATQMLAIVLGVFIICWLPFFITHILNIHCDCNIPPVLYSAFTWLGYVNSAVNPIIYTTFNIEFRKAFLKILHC

[6] = target: T3, D(2) dopamine receptor; assay: Displacement of [3H]raclopride from human recombinant dopamine D2 long receptor expressed in CHO-K1 cells at 1 uM incubated for 120 mins by scintillation counting analysis
[7] = target: T2, 5-hydroxytryptamine receptor 6; assay: Displacement of [3H]LSD from human recombinant 5-HT6 receptor expressed in CHO-K1 cells incubated for 3 hrs by scintillation counting analysis
[8] = target: T4, Histamine H3 receptor (Homo sapiens, UniProt Q9Y5N1); assay: Displacement of N-alpha-[methyl-3H]methylhistamine dihydrochloride from human recombinant histamine H3 receptor expressed in CHO-K1 cells at 1 uM incubated for 30 mins by liquid scintillation counting analysis
T4 sequence (Q9Y5N1 whole entry): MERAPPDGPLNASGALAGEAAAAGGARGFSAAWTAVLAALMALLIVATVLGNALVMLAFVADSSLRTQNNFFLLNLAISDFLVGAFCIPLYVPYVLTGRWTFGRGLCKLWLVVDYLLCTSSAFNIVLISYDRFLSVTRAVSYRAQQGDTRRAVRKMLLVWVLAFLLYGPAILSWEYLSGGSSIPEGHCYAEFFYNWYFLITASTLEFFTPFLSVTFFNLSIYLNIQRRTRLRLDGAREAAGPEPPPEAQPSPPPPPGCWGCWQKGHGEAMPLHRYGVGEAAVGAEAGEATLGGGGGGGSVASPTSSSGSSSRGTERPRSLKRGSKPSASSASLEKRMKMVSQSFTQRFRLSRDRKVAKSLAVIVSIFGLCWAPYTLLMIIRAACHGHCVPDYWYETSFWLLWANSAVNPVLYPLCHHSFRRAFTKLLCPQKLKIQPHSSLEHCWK

[9] = target: T4, Histamine H3 receptor; assay: Displacement of N-alpha-[methyl-3H]methylhistamine dihydrochloride from human recombinant histamine H3 receptor expressed in CHO-K1 cells incubated for 30 mins by liquid scintillation counting analysis
[10] = species: Homo sapiens; assay: Selectivity index, ratio of Ki for human recombinant histamine H3 receptor expressed in CHO-K1 cells to Ki for human recombinant 5-HT6 receptor expressed in CHO-K1 cells
[11] = species: Homo sapiens; assay: Selectivity index, ratio of Ki for human recombinant dopamine D2 long receptor expressed in CHO-K1 cells to Ki for human recombinant 5-HT6 receptor expressed in CHO-K1 cells
[12] = species: Homo sapiens; assay: Selectivity index, ratio of Ki for human recombinant dopamine D3 receptor expressed in CHO-K1 cells to Ki for human recombinant 5-HT6 receptor expressed in CHO-K1 cells

T1 sequence (P35462 whole entry): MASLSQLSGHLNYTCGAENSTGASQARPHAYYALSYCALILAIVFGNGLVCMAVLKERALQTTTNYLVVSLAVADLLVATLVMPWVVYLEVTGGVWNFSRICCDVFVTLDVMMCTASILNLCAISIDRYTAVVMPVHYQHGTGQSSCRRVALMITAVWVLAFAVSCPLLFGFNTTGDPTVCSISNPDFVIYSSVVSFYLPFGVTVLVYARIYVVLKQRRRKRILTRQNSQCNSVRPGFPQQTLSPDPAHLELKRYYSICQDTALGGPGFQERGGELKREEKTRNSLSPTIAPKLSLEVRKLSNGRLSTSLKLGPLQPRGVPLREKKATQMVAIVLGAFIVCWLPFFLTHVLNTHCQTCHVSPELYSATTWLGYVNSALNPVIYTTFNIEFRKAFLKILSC

Row | Ki [1] | inhibition [2] | inhibition [3] | Ki [5] | inhibition [6] | Ki [7] | inhibition [8] | Ki [9] | SMILES | Ratio Ki [4] | Ratio Ki [10] | Ratio Ki [11] | Ratio Ki [12]
1 | 68 nM | 72% | 92% | 458 nM | 52% | 25 nM | -7% | – | CN1CCN(c2ccc3c(c2)N(S(=O)(=O)c2ccccc2)CC3)CC1 | < 10 | – | – | –
2 | 16 nM | 95% | 86% | 136 nM | 77% | 60 nM | 20% | – | CCN1CCN(c2ccc3c(c2)N(S(=O)(=O)c2ccccc2)CC3)CC1 | < 10 | – | – | –
3 | 48 nM | 94% | 53% | 438 nM | 50% | 129 nM | 65% | 280 nM | CCN1CCN(c2ccc3c(c2)CCN3S(=O)(=O)c2ccccc2)CC1 | – | – | – | –
4 | 321 nM | 72% | 40% | – | 17% | – | 54% | 448 nM | CCN1CCC(c2ccc3c(c2)CCN3S(=O)(=O)c2ccccc2)CC1 | – | – | – | –
5 | 688 nM | 61% | -7% | – | 22% | – | 60% | 294 nM | CCN1CCN(c2ccc3c(c2)CN(S(=O)(=O)c2ccccc2)C3)CC1 | – | – | – | –
6 | – | 9% | 1% | 1040 nM | 48% | – | 82% | 214 nM | O=S(=O)(c1ccccc1)N1CCc2c(C3CCN(C4CCC4)CC3)cccc21 | – | – | – | –
7 | 401 nM | 48% | 86% | – | 14% | 128 nM | 59% | 299 nM | CN1CCC(c2ccc3c(c2)CCN3S(=O)(=O)c2ccccc2)CC1 | – | – | – | –
8 | 449 nM | 60% | 51% | 355 nM | 60% | 266 nM | 59% | 580 nM | O=S(=O)(c1ccccc1)N1CCc2c(N3CCN(C4CCC4)CC3)cccc21 | – | – | – | –
9 | – | 34% | 1% | – | 1% | – | 74% | 395 nM | O=S(=O)(c1ccccc1)N1Cc2ccc(N3CCN(C4CCC4)CC3)cc2C1 | – | – | – | –
10 | 173 nM | 77% | 96% | 211 nM | 67% | 8.2 nM | 17% | – | CN1CCN(c2cccc3c2CCN3S(=O)(=O)c2ccccc2)CC1 | 1.5 | – | – | –
11 | 26 nM | 98% | 81% | 324 nM | 59% | 71 nM | 14% | – | CCCN1CCC(c2ccc3c(c2)N(S(=O)(=O)c2ccccc2)CC3)CC1 | < 10 | – | – | –
12 | 173 nM | 78% | 60% | 411 nM | 50% | 186 nM | 36% | – | O=S(=O)(c1ccccc1)N1CCc2ccc(N3CCN(C4CCC4)CC3)cc21 | < 10 | – | – | –
13 | 72 nM | 91% | 89% | 84 nM | 80% | 31 nM | 50% | 344 nM | CCN1CCN(c2cccc3c2CCN3S(=O)(=O)c2ccccc2)CC1 | 1.5 | – | – | –
14 | – | 14% | 94% | – | 14% | 9 nM | 14% | – | CN1CCC(c2cccc3c2CN(S(=O)(=O)c2ccccc2)C3)CC1 | – | > 100 | > 100 | > 100
15 | – | 16% | 101% | – | 17% | 0.43 nM | 4% | – | O=S(=O)(c1ccccc1)N1Cc2cccc(C3CCNCC3)c2C1 | – | > 100 | > 100 | > 100
16 | – | 32% | 4% | – | 18% | – | 48% | 302 nM | CCN1CCC(c2ccc3c(c2)CN(S(=O)(=O)c2ccccc2)C3)CC1 | – | – | – | –
17 | 591 nM | 58% | 59% | – | 25% | 170 nM | 50% | 317 nM | CCN1CCC(c2cccc3c2CCN3S(=O)(=O)c2ccccc2)CC1 | – | – | – | –
